Test: in vitro
Conditions: human, hela cells, % viability

SMILES	viability at 28.5 h, 10 µM [%]	viability at 28.5 h, 10 µM (bulk resorufin, single well) [%]
O=c1cc(CN2CCN(c3ccccc3)CC2)occ1O [CBK288392]	89	
CN1CCN(Cc2oc(CO)cc(=O)c2O)CC1 [CBK288394]	89.6	
Cc1cc(Cl)ccc1OCCCc1nnc(S)n1C [CBK288396]	85.1	
CCCOC(=O)N(O)c1ccc(Cl)c(Cl)c1 [CBK288400]	94.4	
O=C(O)c1cccc(Cn2c(C3CC3)n[nH]c2=S)c1 [CBK288401]	87.1	
O=c1cc2nc(-c3ccccc3F)[nH]c(=S)n2[nH]1 [CBK288402]	95.5	
O=c1nc(CNc2ccc(Br)cc2)[nH][nH]1 [CBK288403]	86.2	
NS(=O)(=O)c1ccc(CCNC(=O)C2CC2)cc1 [CBK288407]	107	
CCC(CC)Oc1ccc(C2(C)NC(=O)NC2=O)cc1 (stereo not shown) [CBK288409]	96.4	
OCn1nc(-c2ccc(Cl)cc2Cl)oc1=S [CBK288410]	107	
Cn1c2ccccc2c2ncn(CCS)c(=O)c21 [CBK288412]	114	
COc1cc(OC)cc(-c2[nH][nH]c(=O)c2CCN)c1 [CBK288414]	110	
Cc1ccc(Cl)c(OC(=O)NCCOC(=O)NO)c1 [CBK288417]		94.3
O=C1CC(N(O)c2ccccc2)C(=O)N1c1ccc(F)cc1 (stereo not shown) [CBK288419]	104	
NS(=O)(=O)c1ccc(CN2CCCC2=O)cc1 [CBK288420]	108	
Sc1nnc(-c2ccncc2)n1C1CCCCC1 [CBK288421]	105	
Cc1cc(S)n2nc(C)c(-c3ccccc3)c2n1 [CBK288423]	99	
O=C(NS(=O)(=O)c1ccccc1)c1ccccc1 [CBK288429]	88.2	
O=C1N(c2cccc(Cl)c2)Cc2nc(=O)[nH]n21 [CBK288430]	85.1	
O=C(O)C(=O)N1CCN(C(=O)c2cc3ccccc3[nH]2)CC1 [CBK288433]	107	
CN(C)CCCNC(=O)c1ccnc(/C=N/O)c1 [CBK288434]	101	
O=C(CCCOc1ccc(Cl)cc1Cl)NO [CBK288436]	81.7	
S=C1C=C(c2ccccc2)Nc2ccccc2N1 [CBK288438]	87.2	
O=c1[nH]nc2c(SCc3ccccc3)nccn12 [CBK288440]	90.5	
CCOC(=O)N1CCN(c2cc3[nH]c(S)nc3cc2F)CC1 [CBK288444]	89.9	

SMILES	viability at 28.5 h, 10 µM [%]	viability at 28.5 h, 10 µM (bulk resorufin, single well) [%]
Cc1cc(S)c2cc(Br)ccc2n1 [CBK288445]	80.5	
NS(=O)(=O)c1cccnc1NCc1ccccc1 [CBK288448]	85.7	
O=c1[nH]nc2c(S(=O)(=O)N3CCCCC3)cccn12 [CBK288450]	74.9	
Cc1cc(C)cc(Oc2nccn3c(=O)[nH]nc23)c1 [CBK288451]	89.5	
CCN=C(S)NS(=O)(=O)c1ccc(C)cc1 [CBK288452]	86.2	
Cc1cc2c(cc1Br)NC(=O)/C2=N\O [CBK288453]	56	
Cc1nc(S)[nH]c(=O)c1Cc1ccc(F)cc1 [CBK288456]	107	
Cc1cc(N2CCCC2=O)cc(C)c1S(N)(=O)=O [CBK288458]	89.9	
O=c1[nH]nc2ccc(S(=O)(=O)N3CCCCC3)cn12 [CBK288459]	89.5	
COc1ccc(-c2c[nH]c3c(=S)[nH]cnc23)cc1 [CBK288462]	60.5	
CC1(C)CC(=O)C2=C(C1)Nc1[nH][nH]c(=O)c1C2c1ccccn1 (stereo not shown) [CBK288463]	92	
CCC(=O)NC(=S)Nc1ccc(C(=O)N2CCCC2)cc1 [CBK288464]	108	
Cn1c(-c2ccccc2)c(C(=O)C(N)=O)c2ccccc21 [CBK288465]	104	
NC(=O)C(=O)c1c(-c2ccccc2)cc2ccccn12 [CBK288466]	100	
O=c1[nH]nc2c(S(=O)(=O)N3CCOCC3)cccn12 [CBK288469]	94.1	
O=c1[nH]nc2c(SC3CCCCC3)nccn12 [CBK288471]	69.4	
O=C(NCc1ccccn1)/C(=N/O)c1ccccc1 [CBK288472]	114	
S=c1nc(-c2ccccc2)n(-c2ccccc2)[nH]1 [CBK288474]	103	
O=C(O)c1ccc(COc2ccccc2/C=N/O)cc1 [CBK288481]	108	
O=c1c2ccccc2nc(COc2ccccc2)n1O [CBK288482]	108	
FC(F)(F)c1ccc2c(c1)nc(S)n2C1CC1 [CBK288483]	86.2	
O=c1c2sccc2[nH]c(=S)n1CCc1ccccc1 [CBK288486]	118	
CN(C)CCCNC(=O)c1ccc(/C=N/O)nc1 [CBK288489]	121	
O=c1[nH]nc2c(N3CCc4ccccc4C3)nccn12 [CBK288497]	80.9	
S=c1[nH]cc(-c2ccc(Br)cc2)o1 [CBK288498]	92.8	

SMILES	viability at 28.5 h, 10 µM [%]	viability at 28.5 h, 10 µM (bulk resorufin, single well) [%]
CN(CCCCCC(=O)/C=N/O)Cc1ccccc1 [CBK288499]	91.7	
O/N=C/c1ccc(-c2cc(Cl)ccc2Cl)o1 [CBK288500]	92.6	
Fc1cccc(C2NC(S)=NC3=C2N2CCC3CC2)c1 (stereo not shown) [CBK288503]	88.2	
CC(C)CCn1c(=S)[nH]c2c(oc3ccccc32)c1=O [CBK288504]	100	
CCCCn1c(S)nc2c(-c3ccccc3)c[nH]c2c1=O [CBK288505]	96.2	
S=C1NC2c3ccccc3OC3(CCCCC23)N1 (stereo not shown) [CBK288506]	102	
S=c1[nH]nc(COc2ccc(Cl)cc2Cl)[nH]1 [CBK288511]	80.3	
NS(=O)(=O)c1cc(C(=O)NCCc2ccc(F)cc2)c(Cl)cc1Cl [CBK288512]	96.7	
Cc1cn(-c2ccc(Br)cc2)[nH]c1=O [CBK288513]	92.7	
COc1ccc(C(=S)NCCCCCC(=O)O)cc1 [CBK288523]	87.1	
CC1CCc2c(sc(NC(=O)c3ccncc3)c2C(N)=O)C1 (stereo not shown) [CBK288530]	87.8	
C1=Nn2c(nnc2-c2ccncc2)SC(c2ccccc2)=C1 [CBK288535]	101	
CCSc1nc(-c2ccncc2)ccc1C#N [CBK288539]	75.2	
CN1CCc2c(sc3ncn4nc(-c5ccncc5)nc4c23)C1 [CBK288540]	96.2	
Cc1nc2sc3c(c2c2nc(-c4ccncc4)nn12)CCCC3 [CBK288541]	94.5	
c1cc(-c2nnc3n2CCCCS3)ccn1 [CBK288543]	99.3	
Brc1cnc(-n2cnc3ccccc32)nc1 [CBK288546]	84.2	
N#Cc1sc2nc(-c3ccncc3)ccc2c1N [CBK288547]	78.3	
Cc1nn2c(-c3ccncc3)ccnc2c1-c1ccccc1 [CBK288548]	103	
OCc1nnn(-c2ccncc2)c1CO [CBK288549]	96.8	
Cc1ccc(-c2ncc3c(=O)[nH]c(=O)n(C)c3n2)cc1 [CBK288553]	89.6	
O=C1Nc2ccccc2C(O)(C(=O)NCc2ccccc2)N1c1ccccc1 (stereo not shown) [CBK288555]	91.1	
Cc1ccc(C)c(-c2csc3c(=O)[nH]cnc23)c1 [CBK288556]	101	

— article PMC12040169 (PLOS Biology, 2025)
